The test system of one series is HBV. As to the kind of experiment: Determination of HBV DNA from the supernatants of HepAD38 cells (anti-HBV activity). The class given is cell-based, hepatitis B virus. Particulars: Hepatitis B virus, 144 h; HBV DNA in HepAD38 supernatant, day 6, qPCR; read-out: Cell Activity (EC50). In short, it runs like this:
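Supernatant viral DNA was measured by LightCycler qPCR, calibrated with pCH-9/3091 plasmid, 6 days after tetracycline-free HepAD38 cultures received half-log serial compound dilutions; untreated and tetracycline-treated cells served as controls; EC50 was fitted by non-linear regression.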
(Quantitative PCR measures a nucleic acid by following its amplification.)

The target in a further series is T1, HBV core protein (UniProt P03146).
T1 construct: fused on or other part: BODIPY-FL maleimide label on the C-terminal Cys150
As to the kind of experiment: Biochemical capsid assembly assay (fluorescence quenching). On the set-up: species or system hepatitis B virus. Particulars: read-out: Assembly Activity (IC50); BODIPY-FL labelled core protein, 300 μM NaCl, read 6 min after start. As for the experimental part:
Biochemical Capsid Assembly Assay
The screening for assembly effector activity was done based on a fluorescence quenching assay published by Zlotnick et al. (2007). The C-terminal truncated core protein containing 149 amino acids of the N-terminal assembly domain fused to a unique cysteine residue at position 150 and was expressed in E. coli using the pET expression system (Merck Chemicals, Darmstadt). Purification of core dimer protein was performed using a sequence of size exclusion chromatography steps. In brief, the cell pellet from 1 L BL21 (DE3) Rosetta2 culture expressing the coding sequence of core protein cloned NdeI/XhoI into expression plasmid pET21b was treated for 1 h on ice with a native lysis buffer (Qproteome Bacterial Protein Prep Kit; Qiagen, Hilden). After a centrifugation step the supernatant was precipitated during 2 h stirring on ice with 0.23 g/ml of solid ammonium sulfate. Following further centrifugation the resulting pellet was resolved in buffer A (100 mM Tris, pH 7.5; 100 mM NaCl; 2 mM DTT) and was subsequently loaded onto a buffer A equilibrated CaptoCore 700 column (GE HealthCare, Frankfurt). The column flow through containing the assembled HBV capsid was dialyzed against buffer N (50 mM NaHCO3 pH 9.6; 5 mM DTT) before urea was added to a final concentration of 3M to dissociate the capsid into core dimers for 1.5 h on ice. The protein solution was then loaded onto a 1 L Sephacryl S300 column. After elution with buffer N core dimer containing fractions were identified by SDS-PAGE and subsequently pooled and dialyzed against 50 mM HEPES pH 7.5; […]. To improve the assembly capacity of the purified core dimers a second round of assembly and disassembly starting with the addition of 5 M NaCl and including the size exclusion chromatography steps described above was performed. From the last chromatography step core dimer containing fractions were pooled and stored in aliquots at concentrations between 1.5 to 2.0 mg/ml at −80° C.
Immediately before labelling the core protein was reduced by adding freshly prepared DTT in a final concentration of 20 mM. After 40 min incubation on ice storage buffer and DTT was removed using a Sephadex G-25 column (GE HealthCare, Frankfurt) and 50 mM HEPES, pH 7.5. For labelling 1.6 mg/ml core protein was incubated at 4° C. and darkness overnight with BODIPY-FL maleimide (Invitrogen, Karlsruhe) in a final concentration of 1 mM. After labelling the free dye was removed by an additional desalting step using a Sephadex G-25 column. Labelled core dimers were stored in aliquots at 4° C. In the dimeric state the fluorescence signal of the labelled core protein is high and is quenched during the assembly of the core dimers to high molecular capsid structures. The screening assay was performed in black 384 well microtiter plates in a total assay volume of 10 μl using 50 mM HEPES pH 7.5 and 1.0 to 2.0 μM labelled core protein. Each screening compound was added in 8 different concentrations using a 0.5 log-unit serial dilution starting at a final concentration of 100 μM, 31.6 μM or 10 μM, In any case the DMSO concentration over the entire microtiter plate was 0.5%. The assembly reaction was started by the injection of NaCl to a final concentration of […] which induces the assembly process to approximately 25% of the maximal quenched signal. 6 min after starting the reaction the fluorescence signal was measured using a Clariostar plate reader (BMG Labtech, Ortenberg) with an excitation of 477 nm and an emission of 525 nm. As 100% and 0% assembly control HEPES buffer containing 2.5 M and 0 M NaCl was used. Experiments were performed thrice in triplicates. EC50 values were calculated by non-linear regression analysis using the Graph Pad Prism 6 software (GraphPad Software, La Jolla, USA).

Series [1] can be described thus: Cell viability assay (AlamarBlue) in HepAD38 cells. Particulars: human. Background: The colour change of resazurin is a common sign of viable cells or microbes.

Structures are written as SMILES.

T1 sequence (P03146 whole entry, looked up, the tested form may be a part): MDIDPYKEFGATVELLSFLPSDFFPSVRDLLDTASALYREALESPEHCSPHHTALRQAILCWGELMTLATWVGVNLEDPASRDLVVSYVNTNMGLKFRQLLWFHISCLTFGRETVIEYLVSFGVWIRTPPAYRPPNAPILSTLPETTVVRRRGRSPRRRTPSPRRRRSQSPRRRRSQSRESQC

Broadly, the EC50 is the concentration giving half of the maximal effect. In general, IC50 refers to the point on the concentration scale where inhibition reaches its midpoint. As usually defined, the CC50 is the concentration at which the toxic effect on the cells reaches its halfway point. `O=C(c1cc2c(F)cc(F)cc2[nH]1)N1CCc2n[nH]c(-c3cscn3)c2C1` [Example 20, 4,6-difluoro-2-[3-(1,3-thiazol-4-yl)-2H,4H,5H,6H,7H-pyrazolo[4,3-c]pyridine-5-carbonyl]-1H-indole]: the EC50 with HBV was < 1 µM. At HBV core protein, the IC50 was < 5 µM. In series [1], the CC50 at 6 days is > 10 µM.

Consider `O=C(c1cc2c(C(F)(F)F)cccc2[nH]1)N1CCc2n[nH]c(-c3cscn3)c2C1` [Example 21, 2-[3-(1,3-thiazol-4-yl)-2H,4H,5H,6H,7H-pyrazolo[4,3-c]pyridine-5-carbonyl]-4-(trifluoromethyl)-1H-indole], for which the EC50 in the series on HBV was < 1 µM. Further, the IC50 on HBV core protein was < 100 µM. Besides, in series [1], the 50% cytotoxic concentration (CC50) at 6 days is > 10 µM.

Consider `O=C(c1cc2c(F)c(F)ccc2[nH]1)N1CCc2n[nH]c(-c3cscn3)c2C1` [Example 22, 4,5-difluoro-2-[3-(1,3-thiazol-4-yl)-2H,4H,5H,6H,7H-pyrazolo[4,3-c]pyridine-5-carbonyl]-1H-indole], for which, in the series with HBV, the EC50 is < 1 µM. The IC50 on HBV core protein is < 5 µM. The CC50 at 6 days in series [1] was > 10 µM.

On to `Cc1cccc2[nH]c(C(=O)N3CCc4n[nH]c(-c5cscn5)c4C3)cc12` [Example 23, 4-methyl-2-[3-(1,3-thiazol-4-yl)-2H,4H,5H,6H,7H-pyrazolo[4,3-c]pyridine-5-carbonyl]-1H-indole], for which, in the series with HBV, the EC50 is < 1 µM. In addition, on HBV core protein, the IC50 is < 5 µM. Moreover, the CC50 at 6 days in series [1] is > 10 µM.

In the case of `Cc1cc(F)cc2[nH]c(C(=O)N3CCc4n[nH]c(-c5cscn5)c4C3)cc12` [Example 26, 6-fluoro-4-methyl-2-[3-(1,3-thiazol-4-yl)-2H,4H,5H,6H,7H-pyrazolo[4,3-c]pyridine-5-carbonyl]-1H-indole], in the series with HBV, the EC50 was < 1 µM. Further, at HBV core protein, the IC50 is < 5 µM. Further, in series [1], the half-maximal cytotoxic concentration (CC50) at 6 days is > 10 µM.

Consider `CN(CCO)C(=O)c1n[nH]c2c1CN(C(=O)c1cc3c(C(C)(F)F)cc(F)cc3[nH]1)CC2` [Example 27, 5-[4-(1,1-difluoroethyl)-6-fluoro-1H-indole-2-carbonyl]-N-(2-hydroxyethyl)-N-methyl-1H,4H,5H,6H,7H-pyrazolo[4,3-c]pyridine-3-carboxamide], for which the EC50 in the series with HBV was < 1 µM. Moreover, the half-inhibitory concentration (IC50) on HBV core protein was < 5 µM. Moreover, the CC50 at 6 days in series [1] is > 10 µM.

With `CN(CCO)C(=O)c1n[nH]c2c1CN(C(=O)c1cc3c(F)cc(F)cc3[nH]1)CC2` [Example 28, 5-(4,6-difluoro-1H-indole-2-carbonyl)-N-(2-hydroxyethyl)-N-methyl-1H,4H,5H,6H,7H-pyrazolo[4,3-c]pyridine-3-carboxamide], the half-maximal effective concentration (EC50) in the series on HBV is < 1 µM. Besides, the IC50 at HBV core protein is < 5 µM. Also, in series [1], the CC50 at 6 days was > 10 µM.

Turning to `CN(CCO)C(=O)c1n[nH]c2c1CN(C(=O)c1cc3ccc(Br)cc3[nH]1)CC2` [Example 29, 5-(6-bromo-1H-indole-2-carbonyl)-N-(2-hydroxyethyl)-N-methyl-1H,4H,5H,6H,7H-pyrazolo[4,3-c]pyridine-3-carboxamide], the EC50 in the series with HBV was < 1 µM. For the same compound, the IC50 at HBV core protein is < 5 µM. The 50% cytotoxic concentration (CC50) at 6 days in series [1] is > 10 µM.

Take `CN(CCO)C(=O)c1n[nH]c2c1CN(C(=O)c1cc3c(Br)cccc3[nH]1)CC2` [Example 30, 5-(4-bromo-1H-indole-2-carbonyl)-N-(2-hydroxyethyl)-N-methyl-1H,4H,5H,6H,7H-pyrazolo[4,3-c]pyridine-3-carboxamide]: the EC50 in the series with HBV is < 1 µM. Besides, the IC50 on HBV core protein was < 5 µM. For the same compound, in series [1], the CC50 at 6 days was > 10 µM.

In the case of `CNC(C)(C)COC(=O)c1n[nH]c2c1CN(C(=O)c1cc3ccccc3[nH]1)CC2` [Example 31, 2-methyl-2-(methylamino)propyl 5-(1H-indole-2-carbonyl)-1H,4H,5H,6H,7H-pyrazolo[4,3-c]pyridine-3-carboxylate], the EC50 in the series on HBV was 1 to 25 µM. The IC50 on HBV core protein was 5 to 10 µM. For the same compound, the CC50 at 6 days in series [1] is > 100 µM.

With `CNC1(COC(=O)c2n[nH]c3c2CN(C(=O)c2cc4ccccc4[nH]2)CC3)CC1` [Example 32, [1-(methylamino)cyclopropyl]methyl 5-(1H-indole-2-carbonyl)-1H,4H,5H,6H,7H-pyrazolo[4,3-c]pyridine-3-carboxylate], in the series on HBV, the EC50 was < 1 µM. Also, the IC50 on HBV core protein was < 5 µM. The CC50 at 6 days in series [1] is > 100 µM.

In the case of `CN(C(=O)c1n[nH]c2c1CN(C(=O)c1cc3ccccc3[nH]1)CC2)C1(CO)CC1` [Example 33, N-[1-(hydroxymethyl)cyclopropyl]-5-(1H-indole-2-carbonyl)-N-methyl-1H,4H,5H,6H,7H-pyrazolo[4,3-c]pyridine-3-carboxamide], the EC50 in the series on HBV was < 1 µM. On HBV core protein, the IC50 is < 5 µM. In addition, in series [1], the CC50 at 6 days was > 10 µM.

In the case of `CC1(O)CN(C(=O)c2n[nH]c3c2CN(C(=O)c2cc4ccccc4[nH]2)CC3)C1` [Example 34, 1-[5-(1H-indole-2-carbonyl)-1H,4H,5H,6H,7H-pyrazolo[4,3-c]pyridine-3-carbonyl]-3-methylazetidin-3-ol], the EC50 in the series with HBV was < 1 µM. Further, the IC50 on HBV core protein was < 100 µM. In addition, the CC50 at 6 days in series [1] is > 15 µM.

For `CC1c2c(-c3cscn3)n[nH]c2CCN1C(=O)c1cc2ccccc2[nH]1` (stereo not drawn) [Example 36, 2-[4-methyl-3-(1,3-thiazol-4-yl)-1H,4H,5H,6H,7H-pyrazolo[4,3-c]pyridine-5-carbonyl]-1H-indole], in the series with HBV, the EC50 is < 1 µM. At HBV core protein, the IC50 lay in the range of 5 to 10 µM. In series [1], this compound came in with a CC50 at 6 days of 88 µM.

On to `CC1Cc2[nH]nc(-c3cscn3)c2CN1C(=O)c1cc2c(Cl)cc(F)cc2[nH]1` (stereo not drawn) [Example 37, 4-chloro-6-fluoro-2-[6-methyl-3-(1,3-thiazol-4-yl)-1H,4H,5H,6H,7H-pyrazolo[4,3-c]pyridine-5-carbonyl]-1H-indole], for which the EC50 in the series on HBV was < 1 µM. Moreover, the IC50 on HBV core protein lay within 5 to 10 µM. Moreover, the CC50 at 6 days in series [1] is > 32 µM.

For the compound `CC1Cc2[nH]nc(-c3cscn3)c2CN1C(=O)c1cc2ccccc2[nH]1` (stereo not drawn) [Example 38, 2-[6-methyl-3-(1,3-thiazol-4-yl)-1H,4H,5H,6H,7H-pyrazolo[4,3-c]pyridine-5-carbonyl]-1H-indole], the EC50 with HBV was < 1 µM. At HBV core protein, the IC50 is < 5 µM. Further, the midpoint of cytotoxicity in series [1], the CC50 at 6 days, lay at 100 µM.

On to `CC(C)(O)C1CN(C(=O)c2n[nH]c3c2CN(C(=O)c2cc4ccccc4[nH]2)CC3)C1` [Example 39, 2-{1-[5-(1H-indole-2-carbonyl)-1H,4H,5H,6H,7H-pyrazolo[4,3-c]pyridine-3-carbonyl]azetidin-3-yl}propan-2-ol], for which the EC50 in the series on HBV lay within 1 to 25 µM. Moreover, the IC50 on HBV core protein was < 100 µM. For the same compound, the CC50 at 6 days in series [1] is > 32 µM.

With `O=C(c1cc2ccccc2[nH]1)N1CCc2[nH]nc(C(=O)N3CC(O)C3)c2C1` [Example 40, 1-[5-(1H-indole-2-carbonyl)-1H,4H,5H,6H,7H-pyrazolo[4,3-c]pyridine-3-carbonyl]azetidin-3-ol], the EC50 with HBV fell in the range of 1 to 25 µM. Moreover, the IC50 at HBV core protein was < 5 µM. Further, the cytotoxic concentration (CC50) at 6 days in series [1] is > 100 µM.

Consider `CC(O)CN(C)C(=O)c1n[nH]c2c1CN(C(=O)c1cc3ccccc3[nH]1)CC2` (stereo not drawn) [Example 41, N-(2-hydroxypropyl)-5-(1H-indole-2-carbonyl)-N-methyl-1H,4H,5H,6H,7H-pyrazolo[4,3-]pyridine-3-carboxamide], for which the EC50 with HBV was < 1 µM. Moreover, at HBV core protein, the IC50 was < 5 µM. Moreover, the CC50 at 6 days in series [1] was > 100 µM.

(Values after patent US11236087B2, “Highly active pyrazolo-piperidine substituted indole-2-carboxamides active against the hepatitis B virus (HBV)” (AiCuris GmbH & Co. KG, priority 2017, dated 2022).)
